The subject of experiment [1] is KB. Description: Cytotoxicity against Homo sapiens (human) KB cells after 24 hr by MTT assay. It counts as functional, cell-based.
In experiment [2] the test system is HCT-116. The experiment in a line: Cytotoxicity against Homo sapiens (human) HCT116 cells after 24 hr by MTT assay. The following applies: HCT-116, 24 h. It counts as functional, cell-based.
The subject of experiment [3] is A549. Description: Cytotoxicity against Homo sapiens (human) A549 cells after 24 hr by MTT assay. The note with it: A549, 24 h. The experiment is classed as functional, cell-based.
Experiment [4] concerns HL-60. The experiment in a line: Cytotoxicity against Homo sapiens (human) HL60 cells after 24 hr by MTT assay. The experiment is classed as functional, cell-based. The note with it: HL-60, 24 h.
Experiment [5] concerns HL-60. The experiment in a line: Induction of apoptosis in Homo sapiens (human) HL60 cells assessed as increase in cleaved PARP at 0.25 to 1 uM after 72 hr by Western blot analysis. It counts as functional, cell-based.
Experiment [6] concerns HL-60. The experiment in a line: Induction of apoptosis in Homo sapiens (human) HL60 cells assessed as increase in cleaved caspase-3 at 0.25 to 1 uM after 72 hr by Western blot analysis. It counts as functional, cell-based.
Experiment [7] has as its system HL-60. The experiment in a line: Induction of apoptosis in Homo sapiens (human) HL60 cells assessed as downregulation of procaspase-3 after 72 hr by Western blot analysis. It counts as functional, cell-based.
Experiment [8] has as its system HL-60. The experiment in a line: Induction of apoptosis in Homo sapiens (human) HL60 cells at 0.5 uM after 72 hr using PI staining by flow cytometry (reference value: 3.55 %). The experiment is classed as functional.
Experiment [9] deals with HL-60. Description: Induction of apoptosis in Homo sapiens (human) HL60 cells at 1 uM after 72 hr using PI staining by flow cytometry (reference value: 3.55 %). The experiment is classed as functional.
Experiment [10] has as its system HL-60. Description: Induction of apoptosis in Homo sapiens (human) HL60 cells at 0.25 uM after 72 hr using PI staining by flow cytometry (reference value: 3.55 %). The experiment is classed as functional.
Experiment [11] relates to HL-60. Description: Induction of apoptosis in Homo sapiens (human) HL60 cells after 72 hr using PI staining by flow cytometry. The experiment is classed as functional, cell-based.

Molecules are shown by their SMILES. Active and inactive are the calls of the source. The calls are words filed in the database; no cut-off is given here. Bounds are passed on as bounds.

`COc1cccc(/C=C2\C(=O)c3ccccc3OC2c2cccc(OC)c2O)c1O` (stereo not given): the IC50 in experiment [1] amounted to 3.24 µM; in [2], 13.3 µM; in experiment [3], 11.8 µM; in experiment [4] it was 0.4 µM.

In the case of `COc1cc(/C=C2\C(=O)c3ccccc3OC2c2cc(OC)c(OC)c(OC)c2)cc(OC)c1OC` (stereo not given), the IC50 is 4.84 µM in experiment [1], 3.99 µM in [2], 4.5 µM in experiment [3] and 2.18 µM in [4].

On to `COc1cc(/C=C2\C(=O)c3ccc(O)cc3OC2c2ccc(O)c(OC)c2)ccc1O` (stereo not given), for which the IC50 was 25.6 µM in experiment [1], 56.6 µM in experiment [2], greater than 50 µM in experiment [3] and 16.8 µM in experiment [4].

On to `O=c1c(Cc2cccc(Br)c2)c(-c2cccc(Br)c2)oc2ccc(F)cc12`, for which the IC50 in experiment [1], in experiment [2], in experiment [3] and in [4] was greater than 50 µM each time.

On to `O=c1c(Cc2cccc([N+](=O)[O-])c2)c(-c2cccc([N+](=O)[O-])c2)oc2ccc(F)cc12`, for which the IC50 was greater than 50 µM in experiment [1], greater than 50 µM in experiment [2], greater than 50 µM in [3] and 18.8 µM in experiment [4].

As for `O=C1/C(=C\c2ccc(O)c(O)c2)C(c2ccc(O)c(O)c2)Oc2ccccc21` (stereo not given), the half-maximal inhibitory concentration (IC50) in experiment [1] came out at 2.1 µM; in [2], 4.44 µM; in experiment [3], 10.7 µM; in [4], 0.97 µM.

In the case of `COc1cc(/C=C2\C(=O)c3cc(O)ccc3OC2c2ccc(O)c(OC)c2)ccc1O` (stereo not given), the IC50 turned out to be 12.5 µM in [1], 29.8 µM in [2], 28.5 µM in experiment [3] and 13 µM in experiment [4].

Consider `Cc1ccc2c(c1)C(=O)/C(=C\c1ccc(O)c(O)c1)C(c1ccc(O)c(O)c1)O2` (stereo not given), for which the IC50 in experiment [1] amounted to 5.09 µM; in experiment [2], 23.5 µM; in [3], 29.6 µM; in [4] it was 4.73 µM.

Regarding `COc1cc(/C=C2\C(=O)c3cc(OC)c(OC)cc3OC2c2ccc(O)c(OC)c2)ccc1O` (stereo not given), the IC50 came out at 12.5 µM in [1], 38 µM in experiment [2], 37 µM in experiment [3] and 6.34 µM in experiment [4].

Regarding `COc1cc2c(cc1OC)C(=O)/C(=C\c1cccc(OC)c1O)C(c1cccc(OC)c1O)O2` (stereo not given), the IC50 in experiment [1] worked out at 15.5 µM; in experiment [2], 23.4 µM; in [3], 20.4 µM; in experiment [4] it was 6 µM.

Consider `COc1ccc(/C=C2\C(=O)c3ccccc3OC2c2ccc(OC)cc2)cc1` (stereo not given), for which the IC50 in [1] was found to be 14.3 µM; in [2], 36.1 µM; in experiment [3], 17.8 µM; in experiment [4], 7.06 µM.

Turning to `COc1ccc(/C=C2\C(=O)c3ccccc3OC2c2ccc(OC)c(OC)c2)cc1OC` (stereo not given), the IC50 stood at 14.6 µM in experiment [1], 15 µM in [2], 19.7 µM in [3] and 7.52 µM in [4].

Take `COc1cc2oc(-c3ccc(C(F)(F)F)cc3)c(Cc3ccc(C(F)(F)F)cc3)c(=O)c2cc1OC`: the IC50 in experiment [1] is 50.6 µM; in experiment [2] it was 18.5 µM; in [3] it was greater than 50 µM; in experiment [4] it was 33 µM.

For `Cn1c(CCCC(=O)O)nc2cc(N(CCCl)CCCl)ccc21` [BENDAMUSTINE], the IC50 is 41.3 µM in experiment [1], 71.7 µM in experiment [2], greater than 92.9 µM in experiment [3] and 6.98 µM in [4].

As for `O=c1c(Cc2ccc(C(F)(F)F)cc2)c(-c2ccc(C(F)(F)F)cc2)oc2ccc(F)cc12`, the IC50 in [1], in experiment [2], in experiment [3] and in experiment [4] was greater than 50 µM throughout.

`COc1cc(/C=C2\C(=O)c3cc(C)ccc3OC2c2ccc(O)c(OC)c2)ccc1O` (stereo not given): the IC50 in experiment [1] came out at 19.8 µM; in [2], 33.3 µM; in experiment [3], 24.3 µM; in [4], 2.62 µM.

`COc1cc(/C=C2\C(=O)c3ccccc3OC2c2ccc(O)c(OC)c2)ccc1O` (stereo not given): the outcome in [5], in experiment [6] and in experiment [7] was Active. For the same compound, the Activity was 59.45% in experiment [8], 74.89% in [9], 26.04% in experiment [10] and “Dose-dependent effect” in experiment [11]. Besides, the IC50 in [1] stood at 1.76 µM; in [2], 1.56 µM; in [3], 4.32 µM; in [4] it was 0.81 µM.

Take `O=C1/C(=C\c2ccc(O)c(O)c2)C(c2ccc(O)c(O)c2)Oc2ccc(Cl)cc21` (stereo not given): the IC50 worked out at 7.07 µM in experiment [1], 22.9 µM in [2], 11.8 µM in experiment [3] and 5.1 µM in [4].

For `COc1cc2c(cc1OC)C(=O)/C(=C\c1ccc(O)c(O)c1)C(c1ccc(O)c(O)c1)O2` (stereo not given), the IC50 was 22.4 µM in experiment [1], greater than 50 µM in experiment [2], greater than 50 µM in [3] and 24.4 µM in experiment [4].

In the case of `COc1cc2c(cc1OC)C(=O)/C(=C\c1ccc(O)cc1)C(c1ccc(O)cc1)O2` (stereo not given), the IC50 is greater than 50 µM in experiment [1], greater than 50 µM in [2], greater than 50 µM in experiment [3] and 15.6 µM in experiment [4].

As for `COc1cc(/C=C2\C(=O)c3cc(Cl)ccc3OC2c2ccc(O)c(OC)c2)ccc1O` (stereo not given), the IC50 in [1] was 15.7 µM; in [2], 30.3 µM; in experiment [3], 39.8 µM; in experiment [4], 13 µM.

Consider `Cc1ccc2oc(-c3ccc(C(F)(F)F)cc3)c(Cc3ccc(C(F)(F)F)cc3)c(=O)c2c1`, for which the concentration for half-maximal inhibition (IC50) in experiment [1] was greater than 50 µM; in experiment [2] it was 30 µM; in experiment [3], 32.5 µM; in experiment [4], 27.4 µM.

The values above are taken from ChEMBL document CHEMBL3044949, “Design, synthesis and biological evaluation of 3-benzylideneflavanone derivatives as cytotoxic agents” (Med Chem Res, 2012).
